In PMC9589885, “A designed antimicrobial peptide with potential ability against methicillin resistant Staphylococcus aureus” (Frontiers in Microbiology, 2022):
In brackets after ≈: the same amount, converted by molar mass. Where two headings read alike, the source gives them in different places. Residues, ends and D or L forms follow the SMILES beside them.

Legend:
[1] = tested on: Escherichia coli (ATCC25922); type: cell-based; conditions: E. coli ATCC25922; broth dilution, 37°C, 16 h
Source text: (§1) The standard strain of Staphylococcus aureus (S. aureus, ATCC6538), Escherichia coli (E. coli, ATCC25922), Pseudomonas aeruginosa (P. aeruginosa, ATCC9027), Acinetobacter baumannii (A. baumannii, ATCC19606) and Candida albicans (C. albicans, ATCC/0331) used in this experiment was purchased from the microbial strain collection center of Guangdong Province. The methicillin resistant strain of Staphylococcus aureus (MRSA, SAZ) and clinically isolated antibiotic-resistance strains (SA115775 and SA15192) were clinically isolated from the First Affiliated Hospital of Kunming Medical University. The strains of C. albicans were cultured in 1/3 YM Medium (HB0297-1) + 2/3 RPMI 1640 medium (10-040-CVR, Corning), and other bacterial strains were cultured in Luria-Bertani (LB: 2 g tryptone, 1 g yeast extract, 2 g sodium chloride and 200 ml deionized water) broth.
(§2) Briefly, bacteria strains were diluted and adjusted to the concentration of 2 × 10^5 CFU/ml using RPMI 1640 medium. Samples were prepared as a stock solution in saline, and then diluted to a series of concentrations. 100 μl bacterial suspension and 100 μl samples at the indicated concentration were put together in 96-well plates and incubated at 37°C for 16 h. Finally, an absorbance at 600 nm was measured by a microplate reader to estimate bacterial growth. The MIC was defined as the lowest concentration where the bacterial growth could not be detected completely.

[2] = tested on: Pseudomonas aeruginosa (ATCC9027); assay: MIC, broth dilution; type: cell-based; conditions: P. aeruginosa ATCC9027, 37°C, 16 h
Source text: as §1
as §2, with “100 μl bacterial suspension and 100 μl samples at the indicated concentration were put together in 96-well plates and incubated at 37°C for 16 h.” left out

[3] = tested on: Acinetobacter baumannii (ATCC19606); assay: MIC, broth dilution; type: cell-based; conditions: A. baumannii ATCC19606, 37°C, 16 h
Source text: as §1
as §2, with “100 μl bacterial suspension and 100 μl samples at the indicated concentration were put together in 96-well plates and incubated at 37°C for 16 h.” left out

S. aureus (ATCC6538) [4] = assay: Staphylococcus aureus intraperitoneal infection model; type: in vivo, C57BL/6 mice; conditions: CFU 4 h after administration, n = 6
Description: S. aureus (ATCC6538) and methicillin resistant strain of Staphylococcus aureus (MRSA, SAZ) were resuspended by saline with the concentration of 1 × 10^9 CFU/ml. […] 2 h later, samples were intraperitoneally injected with the concentration indicated. After 4 h of administration, mice were sacrificed, blood was collected via retro-orbital bleeding and lungs were harvested and homogenized in 1 ml of saline with a hand tissue grinder. 10-fold serial dilutions of the homogenates and blood were made in pyrogen-free NaCl and equal volumes were plated on LB agar plates and incubated at 37°C. CFU were counted after 24 h.
After 4 h of administration, mice were sacrificed, blood (A,C) and lung (B,D) were collected for the measurement of bacterial loads. Data represent mean ± SD values of six independent experiments. *p < 0.05, **p < 0.01, ***p < 0.001.

[5] = tested on: methicillin-resistant S. aureus (MRSA-Z); assay: Bacterial killing kinetic assay; type: cell-based, Staphylococcus aureus; conditions: 1 ×, 5 × and 10 × MIC; RPMI 1640 with 10% FBS, 37°C
Description: (§3) The bacterial killing kinetic assay was performed according to the previous method with minor modifications ([Wei et al., 2015]). S. aureus (ATCC6538) and methicillin resistant strain of Staphylococcus aureus (MRSA, SAZ) were washed three times with saline and then resuspended with RPMI 1640 medium containing 10% FBS at the concentration of 2 × 10^5 CFU/ml. […] Ten microliter aliquots were extracted at each time point and diluted with fresh broth for 100 times, 100 μl of the dilution was seeded on agar plates. After incubation at 37°C for 24 h, the viable colonies were determined.
(§4) Ten microliter aliquots were extracted at each time point and diluted with fresh broth for 100 times, 100 μl of the dilution was seeded on agar plates. After incubation at 37°C for 24 h, the viable colonies were determined for the killing kinetic analysis. Data represent mean ± SD values of three independent experiments. *p < 0.05, **p < 0.01, ***p < 0.001.

S. aureus (ATCC6538) [6] = assay: Bacterial killing kinetic assay; type: cell-based, Staphylococcus aureus; conditions: 1 ×, 5 × or 10 × MIC; RPMI 1640 with 10% FBS, 37°C; not completely killed in the time given
Description: as §3, §4

[7] = tested on: Staphylococcus aureus (SA15192); assay: microbe, parasite or virus in culture; type: cell-based; conditions: 16 h
Source text: as §1, §2

[8] = tested on: Staphylococcus aureus (ATCC6538); assay: microbe, parasite or virus in culture; type: cell-based
Source text: as §1, §2

[9] = tested on: methicillin-resistant Staphylococcus aureus (MRSA-Z); assay: microbe, parasite or virus in culture; type: cell-based; conditions: 16 h
Source text: as §1, §2

[10] = tested on: Staphylococcus aureus (SA115775); assay: microbe, parasite or virus in culture; type: cell-based; conditions: 16 h
Source text: as §1, §2

[11] = tested on: human mature red blood cells; conditions: 1.32–169.01 μM, 30 min, 37°C, absorbance 540 nm, 3 independent experiments
Description: (§5) Hemolysis of testing sample was calculated as the percentage of Triton X-100-induced hemolysis.
as §5

[12] = tested on: S. aureus (ATCC6538, MRSA-Z, SA15192, SA115775); conditions: 4.23 mM in 100% human plasma, 0-10 h, 37°C, disk diffusion, zone of inhibition, two independent experiments
Description: Residual antibacterial activity for each incubation time point was evaluated by disk diffusion assay. In brief, bacteria were seeded on nutrient agar plates, 6 mm paper disks were placed on top and 10 μl aliquots of the plasma-peptide mixture was added to the paper disks. After 24 h incubation, the inhibitory zones against S. aureus (ATCC6538, MRSA-Z, SA15192, SA115775) were measured and recorded.
Data represent mean ± SD of two independent experiments.

[13] = tested on: Candida albicans (ATCC/0331); type: cell-based; conditions: C. albicans ATCC/0331; broth dilution, 37°C, 16 h
Source text: as §1, §2

HEK293T cells = conditions: up to 169.01 μM, 24 h, CCK8, absorbance 450 nm; 3 independent experiments
in vitro = conditions: human, human plasma
Description: After incubation for 0, 2, 4, 6, 8 and 10 h at 37°C, an aliquot of 10 μl sample was taken for protein precipitation with an equal volume of 4% H3PO4, the mixture was vortex-mixed for 2 min and then centrifuged at 13000 rpm for 15 min at 4°C. 3 μl of supernatant was analyzed using reverse-phase high performance liquid chromatography (RP-HPLC), and the remaining peptide was calculated through the integrated peak area.

C57BL/6 mice = assay: In vivo acute toxicity assay; set-up: species or system mouse; conditions: single dose 20 mg/kg and 40 mg/kg, intravenous (tail vein), male C57BL/6, n = 10, recorded 12-72 h
Description: Male C57BL/6 mice aged 6–8 weeks were randomly divided into 2 groups with 10 mice in each group. […] Then the death of mice was recorded at 12 h, 24 h, 36 h, 48 h, 60 h and 72 h, respectively.
[picture] Supplementary Figure 1. […] Male C57BL/6 mice aged 6–8 weeks were randomly divided into 2 groups (n = 10). […] Then the death of mice was recorded at 12 h, 24 h, 36 h, 48 h, 60 h and 72 h respectively.

colistin
MIC [1]: 0.56 µM
MIC [2]: 0.56 µM
MIC [3]: 0.56 µM

CN[C@H](CC(C)C)C(=O)N[C@H]1C(=O)N[C@@H](CC(N)=O)C(=O)N[C@H]2C(=O)N[C@H]3C(=O)N[C@H](C(=O)N[C@H](C(=O)O)c4cc(O)cc(O)c4-c4cc3ccc4O)[C@H](O)c3ccc(c(Cl)c3)Oc3cc2cc(c3O[C@@H]2O[C@H](CO)[C@@H](O)[C@H](O)[C@H]2O[C@H]2C[C@](C)(N)[C@H](O)[C@H](C)O2)Oc2ccc(cc2Cl)[C@H]1O [Vancomycin, vancomycin]
Dissemination of S. aureus (ATCC6538) from the peritoneal cavity to the blood (S. aureus (ATCC6538) [4]; GW18 2, 4, 8 mg/kg or vancomycin 2, 4 mg/kg ip 2 h after infection (2 × 10^8 CFU/mouse ip)): significantly suppressed
Dissemination of S. aureus (ATCC6538) from the peritoneal cavity to the lung (S. aureus (ATCC6538) [4]; GW18 2, 4, 8 mg/kg or vancomycin 2, 4 mg/kg ip 2 h after infection): significantly suppressed
Time to completely kill the MRSA-Z [5]: 240 min
Time to completely kill the S. aureus (S. aureus (ATCC6538) [6]): > 240 min
MIC ([7]; Staphylococcus aureus): 2.16 µM (≈ 3.13 µg/mL)
MIC ([8]; Staphylococcus aureus, ATCC6538, 16 h): 1.08 µM (≈ 1.57 µg/mL)
MIC ([9]; Staphylococcus aureus, MRSA): 0.54 µM (≈ 0.783 µg/mL)
MIC ([10]; Staphylococcus aureus): 1.08 µM (≈ 1.57 µg/mL)

C[C@H](NC(=O)CNC(=O)[C@H](Cc1c[nH]c2ccccc12)NC(=O)CN)C(=O)N[C@@H](CCCCN)C(=O)N[C@@H](CCCNC(=N)N)C(=O)N[C@@H](Cc1c[nH]c2ccccc12)C(=O)NCC(=O)N[C@@H](CCCCN)C(=O)N[C@@H](CCCNC(=N)N)C(=O)NCC(=O)N[C@@H](Cc1c[nH]c2ccccc12)C(=O)N[C@@H](CCCCN)C(=O)N[C@@H](Cc1c[nH]c2ccccc12)C(=O)N[C@@H](CCCCN)C(=O)N[C@@H](CCCNC(=N)N)C(=O)N[C@@H](Cc1c[nH]cn1)C(=O)N[C@@H](Cc1c[nH]c2ccccc12)C(N)=O [GW18] (H-GWGAKRWGKRGWKWKRHW-NH2)
Hemolytic activity [11]: no obvious hemolytic activity
Antibacterial activity against S. aureus after incubation in human plasma [12]: did not significantly affect
MIC [1]: 5.28 µM (≈ 12.5 µg/mL)
MIC [13]: >20 µM
Cytotoxicity on HEK293T (HEK293T cells): no obvious cytotoxicity
MIC ([7]; clinical isolate SA15192, broth dilution, RPMI 1640, 2 × 10^5 CFU/ml, 37°C, read-out: MIC): 1.32 µM (≈ 3.12 µg/mL)
MIC ([8]; S. aureus ATCC6538, broth dilution, RPMI 1640, 2 × 10^5 CFU/ml, 37°C, 16 h, absorbance 600 nm, read-out: MIC): 1.32 µM (≈ 3.12 µg/mL)
MIC ([9]; MRSA-Z, broth dilution, RPMI 1640, 2 × 10^5 CFU/ml, 37°C, absorbance 600 nm, read-out: MIC): 1.32 µM (≈ 3.12 µg/mL)
MIC ([10]; clinical isolate SA115775, broth dilution, RPMI 1640, 2 × 10^5 CFU/ml, 37°C, read-out: MIC): 1.32 µM (≈ 3.12 µg/mL)
remaining at 10 h, 4.23 μM (in vitro): 57.6%
Acute toxicity (death of mice) (C57BL/6 mice): no acute toxicity

COc1cccc(OC)c1C(=O)N[C@@H]1C(=O)N2[C@@H]1SC(C)(C)[C@@H]2C(=O)O [Methicillin, methicillin]
MIC ([7]; Staphylococcus aureus, clinical isolate SA15192, broth dilution, RPMI 1640, 2 × 10^5 CFU/ml, 37°C, read-out: MIC): 15.5 µM (≈ 5.91 µg/mL)
MIC ([8]; Staphylococcus aureus, S. aureus ATCC6538, broth dilution, RPMI 1640, 2 × 10^5 CFU/ml, 37°C, 16 h, absorbance 600 nm, read-out: MIC): 1.94 µM (≈ 0.738 µg/mL)
MIC ([9]; Staphylococcus aureus, MRSA-Z, broth dilution, RPMI 1640, 2 × 10^5 CFU/ml, 37°C, absorbance 600 nm, read-out: MIC): > 124 µM
MIC ([10]; Staphylococcus aureus, clinical isolate SA115775, broth dilution, RPMI 1640, 2 × 10^5 CFU/ml, 37°C, read-out: MIC): 62.1 µM (≈ 23.6 µg/mL)
